Data set [1] in a line: octanol/water partition coefficient.

A word on the logP: it is a log measure of how a compound divides between an organic and an aqueous phase. The low end stands for lower lipophilicity, the high end for higher lipophilicity. On to `CN(CCCCC[C@@H]1Cc2cc(O)ccc2[C@@H]2[C@@H]1[C@@H]1CC[C@H](O)[C@@]1(C)C[C@@H]2F)CCCSCCCC(F)(F)C(F)(F)F` [antiestrogen 1, 11β-fluoro-7α-{5-[N-methyl-N-3-(4,4,5,5,5-pentafluoropentylthio)propylamino]pentyl}estra-1,3,5(10)-triene-3,17β-diol], for which, in “physchem”, the logP worked out at 5.8.
The molecule `CN(CCCCCCC(F)(F)C(F)(F)C(F)(F)C(F)(F)F)CCCCC[C@@H]1Cc2cc(O)ccc2[C@@H]2[C@@H]1[C@@H]1CC[C@H](O)[C@@]1(C)C[C@@H]2F` [antiestrogen 2, 11β-fluoro-7α-{5-[methyl-(7,7,8,8,9,9,10,10,10-nonafluorodecyl)amino]pentyl}estra-1,3,5(10)-triene-3,17β-diol] registered a logP in data set [1] of 7.8.

For the origin of these results see patent publication US20030157155A1, “Compositions for use as penetration promoters in transdermal formulations for highly lipophilic active ingredients” (priority 2000, published 2003).
